Assay results reported in patent publication US20100173983A1, “METHOD FOR INDUCING AUTOPHAGY” (priority 2007, published 2010).

Key:
caspase 3 [1] = experiment: Caspase 3 activity in xenograft tumour sections; assay type: in vivo, SCID mice; conditions: tumour-bearing mice; not shown
ovarian cancer cells = experiment: Cell viability in presence of pan caspase inhibitor ZVAD-FMK; assay type: cell-based, Human; conditions: ZVAD-FMK 0.5 μg/ml
Procedure: FIG. 5. Comparative cell viability plots of dehydroequol (A) and Cpd 1 (B) treated cells in the presence and absence of the pan caspase inhibitor ZVAD-FMK (0.5 μg/ml).
(§1) Cell viability was evaluated using the CellTiter 96 Aqueous One Solution Cell Proliferation Assay (Promega, Madison, Wis.) according to the manufacturer's instructions. The values from the treated cells were compared with the values generated from the untreated cells and reported as percent viability. Each experiment was performed in triplicate.

caspase 8 = experiment: Caspase-Glo 8 assay in R182 cells; assay type: cell-based, Human; conditions: R182 ovarian cancer explants; dose response and duration of exposure (5 μg/ml, 0-25 hr)
Procedure: FIG. 4. Comparative induction of caspase 8 in R182 ovarian cancer explants by Cpd 1 and dehydroequol using either dose response (A) or duration of exposure (B). Caspase 8 activity was assessed using the Caspase-Glo 8 assay.
(§2) For caspase activity assays, 10 μg of protein in 50 μL total volume was mixed with 50 μL of equilibrated Caspase-Glo 3/7, 8, or 9 reagents (Promega). After incubating at room temperature for 1 hour, luminescence was measured using TD 20/20 Luminometer (Turner Designs, Sunnyvale, Calif.). Blank values were subtracted and fold-increase in activity was calculated based on activity measured from untreated cells. Each sample was measured in triplicate.

caspase 3 [2] = experiment: Caspase-Glo 3/7 assay in R182 cells; assay type: cell-based, Human; conditions: R182 ovarian cancer explants; dose response and duration of exposure (5 μg/ml, 0-25 hr)
Procedure: FIG. 2. Comparative induction of caspase 3 in R182 ovarian cancer explants by Cpd 1 and dehydroequol using either dose response (A) or duration of exposure (B). Caspase 3 activity was assessed using the Caspase-Glo 3/7 assays.
as §2

caspase 9 = experiment: Caspase-Glo 9 assay in R182 cells; assay type: cell-based, Human; conditions: R182 ovarian cancer explants; dose response and duration of exposure (5 μg/ml, 0-25 hr)
Procedure: FIG. 3. Comparative induction of caspase 9 in R182 ovarian cancer explants by Cpd 1 and dehydroequol using either dose response (A) or duration of exposure (B). Caspase 9 activity was assessed using the Caspase-Glo 9 assay.
as §2

[3] = system: CP70 (cell line), R179, R182, R585 (primary ovarian cancer explants); experiment: Cell viability, CellTiter 96 Aqueous One Solution Cell Proliferation Assay, ovarian cancer cells; assay type: cell-based, Human; conditions: concentrations up to 10 μg/ml, 24 hr exposure
Procedure: FIG. 1. Comparative cytotoxicity of dehydroequol and Compound I as described herein (Cpd 1) against normal and ovarian cancer cells: CP70 (cell line), R179, R182, R585 (primary ovarian cancer explants) and OSE (normal ovarian surface epithelial cells). […] Both compounds were tested at concentrations up to 10 μg/ml and exposed to cells for 24 hr.
Human EOC cell lines A2780, CP70, and OSE were propagated in RPMI plus 10% fetal bovine serum (FBS) (Gemini Bio-Products, Woodland, Calif.) at 37° C. in a 5% CO2 atmosphere. Primary EOC cells (R179, R182, R585) were isolated from malignant ovarian ascites and cultured as previously described (Kamsteeg et al., 2003). Dehydroequol and Compound 1 (Cpd 1) were obtained from Novogen (Australia). All other reagents were purchased from Sigma Chemical (St. Louis, Mo.). The pan caspase inhibitor Z-VAD-FMK was obtained from R&D Systems (Minneapolis, Minn.).
as §1

## Oc1ccc(C2=Cc3ccc(O)cc3OC2)cc1 [Dehydroequol, reference compound]
Caspase 3 [1]
  caspase 3 activity in tumour sections: observed only in tumour sections taken from mice dosed with dehydroequol
Ovarian cancer cells
  cell death in the presence of pan caspase inhibitor ZVAD-FMK: apoptosis was inhibited
Caspase 8
  caspase 8 activity: activation of caspase 8 is time (5 μg/ml) and dose dependent
Caspase 3 [2]
  caspase 3 activity: activation of caspase 3 is time (5 μg/ml) and dose dependent
Caspase 9
  caspase 9 activity: activation of caspase 3 is time (5 μg/ml) and dose dependent
[3]
  cell viability of ovarian cancer cells: does not exhibit this pan activity
